One molecule from patent publication US20150203924A1, “[…] FOR HERBICIDE RESISTANCE IN PLANTS” (PURDUE RESEARCH FOUNDATION, priority 2013, published 2015) can be followed below.

The structures appear in SMILES notation. Bounds are passed on as bounds.

Data set [1] has as its system Ambrosia trifida L. (Giant ragweed). Put plainly: Foliar glyphosate treatment of whole plants: fresh weight and visual injury. The format is in vivo. From the text:
Significance (<0.05) between populations (within rates) is indicated by letters (a, b). […] Significance (<0.05) between rates (within populations) is indicated by letters (a, b, c).
Foliar application of herbicide solution was applied using a compressed-air bench top track sprayer at a pressure of 249 kPa and a volume of 187 L of spray solution ha-1. […] All plants were at the third node growth stage at the time of treatment.

Data set [2] has the same test system. Put plainly: Chlorophyll fluorescence measurements / rapid necrosis of mature leaves after glyphosate treatment. Type of data set: in vivo. The settings on record: 1x field rate glyphosate. Here is the method:
To quantify early physiological reactions related to this resistance mechanism, a method was developed using chlorophyll fluorescence measurements to determine photosynthetic activity. […] Treatments at each time point consisted of glyphosate-resistant and glyphosate-sensitive A. trifida untreated and treated leaves.
In an embodiment, to measure fluorescence the maximum quantum efficiency of photosystem II (Fv/Fm) is determined using an Imaging-PAM fluorometer IMAG-MAX/GS with a mounted LED-Array Illumination Unit IMAG-MAX/L and CCD-Camera (Heinz Walz GmbH, 91090 Effeltrich, Germany) along with ImagingWin software. Briefly, dark acclimated plants are exposed to a short saturating light pulse to maximally reduce the QA pool and where fluorescence is increased to maximum values (Fm) and this is followed by a weak non-actinic modulated measuring light to determine the minimal level of fluorescence (F0) (Oxborough, 2004).

Data set [3] deals with EPSPS. Put plainly: EPSPS sensitivity to glyphosate challenge. Type of data set: biochemical, Ambrosia trifida.
Data set [4] relates to Ambrosia trifida L. (Giant ragweed). In words: 14C-glyphosate uptake and translocation. Type of data set: in vivo. Conditions: two mature leaves treated with 14C-glyphosate. An excerpt:
In the study, the treated leaf included two mature leaves treated with ^14C-glyphosate. Mobilized distribution includes untreated mature leaves, meristems and roots.

For data set [5] the test system is unchanged. Put plainly: 31P NMR imaging of glyphosate infiltrated leaves. The format is in vivo.
The test system is the same in data set [6]. Put plainly: H2O2 accumulation in glyphosate treated leaves by DAB staining. The format is in vivo. Here is the method: In an embodiment, the H2O2 presence is visually detected after 3,3′-diaminobenzidine (DAB) staining using procedures described by Thordal-Christensen et al., ([…]). […] At each harvested time, leaf discs are floated in a solution of DAB-Hydrochloric acid (HCl) (1 mg/ml) (Sigma, St. Louis, Mo.) in a beaker at room temperature and allowed to absorb the solution through the cut ends. After 3 hours of incubation, leaf discs are decolorized by boiling in 90% ethanol for ten minutes to remove chlorophyll, before visual examination. Brown precipitates form at sites of H2O2 accumulation and data collected will be by visual detection of H2O2 accumulation as noted by intensity of brown precipitates on treated leave discs. The hypersensitive reaction (HR) has been used as a visual marker of biotic interactions and induction of pathogen response (PR) genes (S) but this has been also shown in plant responses to abiotic stresses such as excess excitation energy (EEE) (Muhlenbock et al., 2008).

The test system is the same in data set [7]. In words: Tissue specific (differential exposure) glyphosate treatment, translocation. The settings on record: uncovered portions sprayed with 0.7 kg ae/ha.
Setting [8] is: three weeks after treatment, 1x glyphosate field rate.

On to `O=C(O)CNCP(=O)(O)O` [glyphosate, N-(phosphonomethyl)glycine], for which, in data set [1] (1x, 2x, 4x treatment levels, after twenty-one days), the “visual plant injury of resistant plants compared to sensitive plants” value is reported as “decreased visual injury compared to the sensitive plants”. For the same molecule, the “visual injury rating (% dead), resistant plants compared to sensitive plants” value in data set [1] (3 weeks after treatment, n=63) is reported as “much lower rating of % dead compared to the sensitive plants”. Also, in data set [1] (setting [8]), the “plant response, glyphosate-resistant plant” value is “recovered from the glyphosate treatment” and the “plant response, glyphosate-sensitive plant” value was “extremely decline”. The “fresh weight of resistant plants compared to sensitive plants” value in data set [1] (whole plant tissue 21 days after treatment, 1x=0.7, 2x=1.4, 4x=2.8 kg ae ha-1) is given as “increased fresh weight at all treatment levels compared to the sensitive plants”. Further, the “time to rapid necrosis in mature leaves, glyphosate-resistant plants” value in data set [2] is at most 12 h. Further, the “EPSPS sensitivity to glyphosate challenge, glyphosate-resistant vs glyphosate-sensitive plants” value in data set [3] is on record as “no difference”. In data set [4], the “absorbed glyphosate translocated, glyphosate resistant plants” value was 28% and the “absorbed glyphosate translocated, glyphosate-sensitive plants” value was found to be 54%. In addition, the “time to rapid cell death, glyphosate-resistant plants” value in data set [5] is at most 16 h. In data set [5] (within 16 hours), the “cell death, glyphosate-sensitive plants” value was “limited cell death”. In data set [6], the “H2O2 production, glyphosate sensitive leaves” value is on record as “no H2O2 production” and the “time to significant H2O2 accumulation, mature leaves of glyphosate-resistant plants” value was at most 2 h. Moreover, in data set [7], the “translocation of glyphosate away from treated tissues, glyphosate-resistant plants” value is listed as “did not translocate glyphosate” and the “translocation of glyphosate away from treated tissues, glyphosate-sensitive plants” value is given as “glyphosate-sensitive plants did”.
